Experimental data taken from patent US7795314B2, “Protective role of semapimod in necrotizing enterocolitis” (Cytokine PharmaSciences, Inc., priority 2005, dated 2010).

Assays:
[1] = system: endotoxin-induced TNF release and shock; details: adult male Lewis rats, icv. vs intravenous; cited from earlier work
Bax = assay: Western blotting of ileal mucosal scrapings, NEC model; format: in vivo, rat; details: FFH pups, 0.75 mg/kg IP daily, day 4, FIG. 4b
Experimental: (§1) All the experiments were carried out according to an animal protocol approved by the Animal Research and Care Committee (ARCC) of the Children's Hospital of Pittsburgh. Pregnant time-dated Sprague-Dawley rats (Charles River Labs, Wilmington, Mass.) were induced at term using a subcutaneous injection (1 to 2 U per animal) of Pitocin® (Monarch Pharmaceuticals, Bristol, Tenn.). Immediately after birth, the neonates were weighed and randomized into one of the different treatment groups. Group 1 consisted of neonatal rats left with their mother, and thus were breast-fed. […]
(§2) Newborn rats were sacrificed as indicated and segments of the terminal ileum were isolated. […] Protein concentration in the supernatant was determined using the bicinchoninic acid (BCA) Protein Assay kit form Sigma (St. Louis, Mo.) with bovine serum albumin as standard. […]

Bad = assay: as above; format: in vivo, rat; details: FFH pups, 0.75 mg/kg IP daily, day 4, FIG. 4a
Experimental: as §1, §2

[2] = system: formula-feeding/hypoxia-mediated intestinal injury (experimental NEC); assay: Animal model of NEC: incidence of NEC and morphologic evaluation of terminal ileum; format: in vivo, Sprague-Dawley rats (newborn); details: FFH newborn rats
Experimental: as §1
Newborn rats separated from their mothers were fed a conventional formula and exposed to hypoxia after administration of the drug semapimod (0.1-1 mg/kg, i.p.) as described in Methods. […] Incidence of NEC was calculated as the percentage of animals displaying pathology scores higher than 0 as assessed by histology. Results in graph bars are the mean±S.E.M. (n=15-45 animals for each group, *P<0.05 vs. FFH without semapimod, analyzed by one-way ANOVA followed by Fisher's LSD Test).

p38 MAP kinase = assay: Activation (phosphorylation) of p38 MAP kinase in IEC-6 cells, Western blotting pp38/p38; format: cell-based, rat
Experimental: The rat intestinal crypt cell line IEC-6 was purchased from the American Type Culture Collection (ATCC, Manassas, Va.). Cells were grown in tissue culture medium consisting of Dulbeco's modified Eagle's medium with 4.5 gm/L glucose (Bio-Whittaker, Walkersville, Md.) supplemented with 5% fetal bovine serum (Bio-Whittaker), 0.02 mM glutamine (GIBCO; Grand Island, N.Y.), 0.1 U/ml insulin, 100 U/ml penicillin, and 100 μg/ml streptomycin (GIBCO) at 37° C. and 10% CO2. Cells were pretreated with semapimod (0.1-10 μM solutions prepared in 5% dextrose) followed by short exposure to LPS (5 μg/ml), peroxynitrite (ONOO^−, 50 μM) or cytomix (a combination of tumor necrosis factor (TNFα, 10 ng/ml), interleukin-1β (IL-β, 1 ng/ml), and interferon-gamma (IFNγ, 1000 U/ml) for 10 min. Preparation of the ONOO^− solution and cell treatment was as previously reported (36). The lysates were collected for Western blotting analysis as follows: proteins were extracted for 10 min at 4° C. witih lysis buffer (20 mM Tris pH 8.0, 150 mM NaCl, 1% NP-40, 0.5% sodium deoxycholate, 0.1% sodium dodecylsulfate) supplemented with protease and phosphatase inhibitors: 1 mM PMSF, 1 mM benzamidine, 50 μg/ml aprotinin, 0.5 mM Na3VO4, 20 mM NaF, and 0.5 mM phenylarsine oxide. Aliquots containing 50 μg total protein were resolved by SDS-polyacrylamide gel electrophoresis. Gels were electroblotted onto nitrocellulose membranes. Following 1 hr incubation in blocking solution (phosphate-buffered saline, 0.1% Tween-20, 2% fish gelatin, pH 7.5), membranes were incubated with primary (phospho-p38 and p38) and secondary horseradish peroxidase-conjugated antibodies as recommended by manufacturers. Membranes were then impregnated with luminol reagent and exposed to x-ray film.
(a) Rat intestinal epithelial cells (IEC-6) were pretreated with different doses of the drug (0.1-10 μM) for 1 hr. prior to stimulation with 5 μg/ml LPS for 10 min or (b) were pretreated with semapimod (5 μM) for 1 hr. prior to stimulation with 5 μg/ml LPS or ONOO^− (50 μM) for 10 min. The protein lysates were then collected and Western blotting analysis for phospho-p38 and p38 (loading control) was performed as described in Methods. (a) A representative blot for pp38/p38 and densitometric analysis showing the ratio of pp38/p38 band intensity. Ctrl are non-stimulated cells. Results in graph bars are the mean±S.E.M. (n=3 independent experiments, *P<0.05 vs. LPS treated cells without pretreatment with semapimod, analyzed by one-way ANOVA followed by Fisher's LSD Test).
The present inventors have previously shown that LPS causes rapid but transient activation of p38 MAP kinase as determined by increased phosphorylation of p38. […] The effect of semapimod on p38 activation by inflammatory mediators other than LPS was evaluated.

HMGB1 = assay: Western blotting of ileal mucosal scrapings, NEC model; format: in vivo, rat; details: FFH+semapimod vs FFH, day 4, 30 kDa band, FIG. 3a
Experimental: as §1, §2

RAGE = assay: as above; format: in vivo, rat; details: FFH+semapimod vs FFH, day 4, 45 and 25 kDa bands, FIG. 3c
Experimental: as §1, §2

iNOS = assay: as above; format: in vivo, rat; details: FFH animals, 0.75 mg/kg IP daily, day 4, FIG. 5a
Experimental: as §1, §2

COX-2 = assay: as above; format: in vivo, rat; details: FFH animals, 0.75 mg/kg IP daily, day 4, FIG. 5b
Experimental: as §1, §2

[3] = 0.1-10 μM pretreatment 1 hr, then 5 μg/ml LPS 10 min, FIG. 6a

Compound: C/C(=N\NC(=N)N)c1cc(NC(=O)CCCCCCCCC(=O)Nc2cc(/C(C)=N/NC(=N)N)cc(/C(C)=N/NC(=N)N)c2)cc(/C(C)=N/NC(=N)N)c1 [semapimod]
- effectiveness of icv. administration in suppressing endotoxin-induced TNF release and shock as compared with intravenous [1]: 100,000 fold
- expression of Bax protein in mucosal scrapings (Bax): significantly decreased
- expression of Bad protein in mucosal scrapings (Bad): significantly decreased
- severity of intestinal injury / morphology as assessed by histology ([2]; 0.75 mg/kg i.p., day 4, FIG. 3b, 0.75 mg/kg): decrease in the severity of injury
- doses that prevented intestinal damage (reduction in the incidence of NEC) ([2]; semapimod 0.1-1 mg/kg i.p. daily, terminal ileum day 4, FIG. 2): higher than 0.5 mg/kg
- phosphorylation of p38 induced by ONOO− (p38 MAP kinase; 5 μM semapimod pretreatment 1 hr, ONOO− 50 μM 10 min, FIG. 6b): not inhibited
- concentrations with maximal effect on LPS-induced phosphorylation of p38 (p38 MAP kinase; [3]): higher than 1 μM
- phosphorylation of p38 induced by LPS (p38 MAP kinase; [3]): dose dependently inhibited
- p38 activation by a mixture of TNFα, IL-1β and IFN-γ (p38 MAP kinase; semapimod pretreatment, cytomix 10 min (not shown)): failed to inhibit
- HMGB1 protein expression in ileal mucosa (HMGB1): reduced after administration of semapimod
- expression of RAGE in ileal mucosal scrapings (RAGE): expression of RAGE was reduced
- expression of iNOS protein in terminal ileum (iNOS): significantly decreased
- expression of COX-2 protein in terminal ileum (COX-2): significantly decreased
